Reference: US10098852B2 (LAUNX BIOMEDICAL CO., LTD., priority 2014, dated 2018)
Where “and” joins values, the source holds several entries; their conditions need not be identical. Equal entries are not always repeated. Where two headings read alike, the source gives them in different places.

Columns and labels:
[1] = test system: SAS (Tongue squamous cell carcinoma); test: Cell viability analysis (WST-1), tongue cancer cell line SAS; type: cell-based
Procedure: (§1) The cell numbers were counted and reseed as 2×10^6 in cell culture plate/flask. Then, the culture medium was added to a volume of 10 ml, and the cells were cultured for 2-3 days. Then, the cells were suspended for loading into 96-well plates. The cell number was 3000/well and the volume of the culture medium was 100 μl each well.
(§2) Removing the original culture medium from 96-well plate. Then add 100 μl of commercially drug at a concentration of 10 μM per well. After 72 hours, add the diluted WST-1 reagent to the well with 100 μl/well, and the diluted WST-1 reagent was acquired from the dilution of 9:1 medium and WST-1 stock reagent. Finally, the total volume of each well was 200 μl/well. Culture the 96-well plate at 37° C. for 30 to 90 minutes. Detecting and calculate the survival rate of each cancer cells with an ELISA reader at OD450 nm.

[2] = test system: A375 (amelanotic melanoma); test: Cell viability analysis (WST-1), skin cancer cell line A375; type: cell-based; conditions: Homo sapiens
Procedure: as §1, §2

ovarian cancer cell = test: Summary of the effect on ovarian cancer cell (NIH-OVCAR-3, TOV-21G); type: cell-based; conditions: ovarian cancer cell (mean of NIH-OVCAR-3 and TOV-21G averages), 72 hours, read-out: Inhibitory effect
Procedure: as §2

gastric cancer cell = test: Summary of the effect on gastric cancer cell (AGS, MKN-45); type: cell-based; conditions: Homo sapiens, gastric cancer cell (mean of AGS and MKN-45 averages), 72 hours, read-out: Inhibitory effect
Procedure: as §2

hepatic cancer cell = test: Summary of the effect on hepatic cancer cell (HepG2, Hep3B); type: cell-based; conditions: hepatic cancer cell (mean of HepG2 and Hep3B averages), 72 hours, read-out: Inhibitory effect
Procedure: as §2

[3] = Animal model test of gastric cancer: body weight and survival; type: in vivo, mice (BALB/cAnN.Cg-Foxn1nu/CrlNarl); conditions: for weight: individual mice A, B, C
Procedure: In this invention, the female mice were (BALB/cAnN.Cg-Foxn1^nu/CrlNarl) purchased from National Laboratory Animal Center (Taiwan)). The weight of the mice were 21±1 g. These mice were subcutaneously injected with gastric cancer cells (AGS) and then put these mice into different cages at random. The drug test experiment was divided into three groups, include “control group”, “low dose group (100 mg/kg/day)”, and “high dose group (200 mg/kg/day)”. These mice were then injected test drug intraperitoneally once daily […]. The tumor sizes and body weight were measured twice a week. The tumor sizes were measured and calculated by formula: (L×W^2)/2. L represents the tumor longest length. W represents the tumor shortest diameter.

[4] = test system: MDA-MB-231 (Mammary Gland, Adenocarcinoma); test: Cell viability analysis (WST-1), breast cancer cell line MDA-MB-231; type: cell-based; conditions: Homo sapiens
Procedure: as §1, §2

[5] = Cell viability analysis (WST-1), normal pulmonary epithelial cell line BEAS-2B; type: cell-based; conditions: human, BEAS-2B normal pulmonary epithelial cells, BEAS-2B normal cells
Description: Subculture the different types of cancer cells. The cancer cells lines includes lung cancer, gastric cancer, hepatic cancer, colon cancer, skin cancer, cervical cancer, prostate cancer, bladder cancer, breast cancer, leukemia, pancreatic cancer, ovarian cancer, tongue cancer, osteosarcoma, and renal cancer. The normal cells used in the control group included kidney cell line (HEK293) and human bronchial epithelial cell line BEAS-2B.
as §1, §2

prostate cancer cell = test: Summary of the effect on prostate cancer cell (PC-3, LNCap); type: cell-based; conditions: Homo sapiens, prostate cancer cell (mean of PC-3 and LNCap averages), 72 hours, read-out: Inhibitory effect
Procedure: as §2

[6] = test system: HepG2 (hepatocellular carcinoma); test: Cell viability analysis (WST-1), hepatic cancer cell line HepG2; type: cell-based; conditions: Homo sapiens
Procedure: as §1, §2

[7] = test system: 786-O (Renal adenocarcinoma); test: Cell viability analysis (WST-1), renal cancer cell line 786-O; type: cell-based; conditions: Homo sapiens
Procedure: as §1, §2

[8] = Cell viability analysis (WST-1), normal kidney cell line HEK293; type: cell-based; conditions: human, HEK293 normal kidney cells
Procedure: as §1, §2

colorectal cancer cell = test: Summary of the effect on colorectal cancer cell (HCT116-wt, LoVo); type: cell-based; conditions: Homo sapiens, colorectal cancer cell (mean of HCT116-wt and LoVo averages), 72 hours, read-out: Inhibitory effect
Procedure: as §2

[9] = average of 4 tests, read-out: inhibition effect (survival rate of cells), average

Oc1ccc(OCc2ccccc2)cc1 [Monobenzone]
viability at 10 µM ([1]; 72 h, SAS, average of 4 tests, read-out: inhibition effect (survival rate of cells), average): 90.3%
viability at 10 µM ([1]; 72 h, tongue cancer cell (SAS average), read-out: Inhibitory effect): 90.3%
viability at 10 µM ([1]; SAS, 72 hours, test 6-26-10 min, read-out: inhibition effect (survival rate of cells)): 97.3%
viability at 10 µM ([1]; SAS, 72 hours, test 6-28-10 min, read-out: inhibition effect (survival rate of cells)): 59.4%
viability at 10 µM ([1]; SAS, 72 hours, test 6-30-10 min, read-out: inhibition effect (survival rate of cells)): 89.6%
viability at 10 µM ([1]; SAS, 72 hours, test 7-3-10 min, read-out: inhibition effect (survival rate of cells)): 115%
viability at 10 µM ([2]; A-375, 72 h, A375, 10 μM, average of 4 tests, read-out: inhibition effect (survival rate of cells), Average): 76.4%
viability at 10 µM ([2]; A-375, A375, 10 μM, 72 hours, test 0602-30 min, read-out: inhibition effect (survival rate of cells)): 56.7%
viability at 10 µM ([2]; A-375, A375, 10 μM, 72 hours, test 0605-10 min, read-out: inhibition effect (survival rate of cells)): 64.8%
viability at 10 µM ([2]; A-375, A375, 10 μM, 72 hours, test 0607-10 min, read-out: inhibition effect (survival rate of cells)): 77.3%
viability at 10 µM ([2]; A-375, A375, 10 μM, 72 hours, test 0609-10 min, read-out: inhibition effect (survival rate of cells)): 107%
viability at 10 µM (ovarian cancer cell): 85%
viability at 10 µM (gastric cancer cell): 82.8%
viability at 10 µM (hepatic cancer cell): 95.4%
health status / death of tested mice during the treatment (in words) ([3]; both high and low doses): healthy status during the treatment without death
weight of mice during the experiment (in words) ([3]; both low dose and high dose, FIG. 2): did not show a significant decrease
weight ([3]; high dose (200 mg/kg/day) i.p. once daily, Fifth measurement, 200 mg/kg/day): 20 g (2×) and 21 g
weight ([3]; high dose (200 mg/kg/day) i.p. once daily, First measurement, 200 mg/kg/day): 20 g (2×) and 19.5 g
weight ([3]; high dose (200 mg/kg/day) i.p. once daily, Fourth measurement, 200 mg/kg/day): 20 g (2×) and 21 g
weight ([3]; high dose (200 mg/kg/day) i.p. once daily, Second measurement, 200 mg/kg/day): 19 g (2×) and 20 g
weight ([3]; high dose (200 mg/kg/day) i.p. once daily, Third measurement, 200 mg/kg/day): 20.5 g and 19 g and 20 g
weight ([3]; low dose (100 mg/kg/day) i.p. once daily, Fifth measurement, 100 mg/kg/day): 20 g (2×) and 21 g
weight ([3]; low dose (100 mg/kg/day) i.p. once daily, First measurement): 21 g
weight ([3]; low dose (100 mg/kg/day) i.p. once daily, Fourth measurement, 100 mg/kg/day): 20 g (2×) and 21 g
weight ([3]; low dose (100 mg/kg/day) i.p. once daily, Second measurement, 100 mg/kg/day): 20 g (2×) and 19 g
weight ([3]; low dose (100 mg/kg/day) i.p. once daily, Third measurement, 100 mg/kg/day): 19.5 g and 19 g and 18.5 g
viability at 10 µM ([4]; MDA-MB-231, 72 h, MDA-MB-231, 10 μM, average of 4 tests, read-out: inhibition effect (survival rate of cells), average): 80.1%
viability at 10 µM ([4]; MDA-MB-231, MDA-MB-231, 10 μM, 72 hours, test 0612-10 min, read-out: inhibition effect (survival rate of cells)): 91.3%
viability at 10 µM ([4]; MDA-MB-231, MDA-MB-231, 10 μM, 72 hours, test 0614-10 min, read-out: inhibition effect (survival rate of cells)): 67.6%
viability at 10 µM ([4]; MDA-MB-231, MDA-MB-231, 10 μM, 72 hours, test 0616-10 min, read-out: inhibition effect (survival rate of cells)): 69.6%
viability at 10 µM ([4]; MDA-MB-231, MDA-MB-231, 10 μM, 72 hours, test 0619-10 min, read-out: inhibition effect (survival rate of cells)): 92%
viability at 72 h, 10 µM [5, 9]: 73.8%
viability at 72 h, 10 µM ([5]; test 0510-10 min, read-out: inhibition effect (survival rate of cells)): 84.7%
viability at 72 h, 10 µM ([5]; test 0512-10 min, read-out: inhibition effect (survival rate of cells)): 79.5%
viability at 72 h, 10 µM ([5]; test 0515-10 min, read-out: inhibition effect (survival rate of cells)): 74.9%
viability at 72 h, 10 µM ([5]; test 0517-10 min, read-out: inhibition effect (survival rate of cells)): 56.2%
viability at 10 µM (prostate cancer cell): 65.2%
viability at 10 µM ([6]; HepG2, 72 h, HepG2, 10 μM, average of 4 tests, read-out: inhibition effect (survival rate of cells), average): 84.7%
viability at 10 µM ([6]; HepG2, HepG2, 10 μM, 72 hours, test 0524-20 min, read-out: inhibition effect (survival rate of cells)): 88.2%
viability at 10 µM ([6]; HepG2, HepG2, 10 μM, 72 hours, test 0526-20 min, read-out: inhibition effect (survival rate of cells)): 85.6%
viability at 10 µM ([6]; HepG2, HepG2, 10 μM, 72 hours, test 0529-20 min, read-out: inhibition effect (survival rate of cells)): 90.8%
viability at 10 µM ([6]; HepG2, HepG2, 10 μM, 72 hours, test 0531-20 min, read-out: inhibition effect (survival rate of cells)): 74.3%
viability at 10 µM ([7]; 786-0, 786-O, 72 hours, test 0524-10 min, read-out: inhibition effect (survival rate of cells)): 39.8%
viability at 10 µM ([7]; 786-0, 786-O, 72 hours, test 0526-10 min, read-out: inhibition effect (survival rate of cells)): 32.4%
viability at 10 µM ([7]; 786-0, 786-O, 72 hours, test 0529-10 min, read-out: inhibition effect (survival rate of cells)): 21.2%
viability at 10 µM ([7]; 786-0, 786-O, 72 hours, test 0531-10 min, read-out: inhibition effect (survival rate of cells)): 23.4%
viability at 10 µM ([7]; 786-0, 72 h, 786-O, average of 4 tests, read-out: inhibition effect (survival rate of cells), average): 29.2%
viability at 10 µM ([7]; 786-0, 72 h, Kidney cancer cell (786-O average), read-out: Inhibitory effect): 29.2%
viability at 72 h, 10 µM [8, 9]: 93%
viability at 72 h, 10 µM ([8]; test 0602-30 min, read-out: inhibition effect (survival rate of cells)): 82.7%
viability at 72 h, 10 µM ([8]; test 0605-30 min, read-out: inhibition effect (survival rate of cells)): 99.4%
viability at 72 h, 10 µM ([8]; test 0607-30 min, read-out: inhibition effect (survival rate of cells)): 97.9%
viability at 72 h, 10 µM ([8]; test 0609-30 min, read-out: inhibition effect (survival rate of cells)): 91.8%
viability at 10 µM (colorectal cancer cell): 89%
